Earlier results as cited in patent US5942547A, “2-Deoxystreptamine derivatives, pharmaceutical compositions thereof and therapeutic methods using same” (priority 1996, dated 1999).

System: REV/RRE interaction

NC[C@@H]1O[C@H](O[C@H]2[C@@H](O)[C@H](O[C@@H]3[C@@H](O)[C@H](N)C[C@H](N)[C@H]3O[C@H]3O[C@H](CN)[C@@H](O)[C@H](O)[C@H]3N)O[C@@H]2CO)[C@H](N)[C@@H](O)[C@@H]1O [neomycin B]
disruption of the REV/RRE interaction (in words): could disrupt the REV/RRE interaction
